The NIST ThermoML archive (doi:10.1021/je900596d)

Settings: Liquid; for mass density: Vibrating tube method; for vapor or sublimation pressure: Closed cell (Static) method

FC(F)=C(F)C(F)(F)F [hexafluoropropene]
Settings | mass density [kg/m3]
263.49 K, 9976.6 kPa | 1506.02
283.17 K, 467.7 kPa | 1382.09
283.17 K, 472.9 kPa | 1382.09
283.17 K, 473.5 kPa | 1382.21
283.17 K, 478.6 kPa | 1382.26
283.17 K, 483 kPa | 1382.29
283.17 K, 491.9 kPa | 1382.32
283.17 K, 493.1 kPa | 1382.39
283.17 K, 504.9 kPa | 1382.43
283.17 K, 526.8 kPa | 1382.57
283.17 K, 533.6 kPa | 1382.61
283.17 K, 540.4 kPa | 1382.7
283.17 K, 548.7 kPa | 1382.78
283.17 K, 574 kPa | 1382.98
283.17 K, 583 kPa | 1382.99
283.17 K, 602 kPa | 1383.21
283.17 K, 637 kPa | 1383.38
283.17 K, 662.9 kPa | 1383.6
283.17 K, 691.4 kPa | 1383.74
283.17 K, 716 kPa | 1383.92
283.17 K, 731.4 kPa | 1384.12
283.17 K, 751.9 kPa | 1384.27
283.17 K, 766.8 kPa | 1384.29
283.17 K, 790.1 kPa | 1384.57
283.17 K, 833.3 kPa | 1384.9
283.17 K, 856.3 kPa | 1384.98
283.17 K, 882.3 kPa | 1385.18
283.17 K, 902.7 kPa | 1385.3
283.17 K, 924.8 kPa | 1385.58
283.17 K, 945.6 kPa | 1385.66
283.17 K, 965.5 kPa | 1385.81
283.17 K, 988.4 kPa | 1386.02
283.17 K, 1017 kPa | 1386.11
283.17 K, 1047.4 kPa | 1386.36
283.17 K, 1072.3 kPa | 1386.5
283.17 K, 1098.6 kPa | 1386.88
283.17 K, 1125.8 kPa | 1386.96
283.17 K, 1165.1 kPa | 1387.2
283.17 K, 1199.3 kPa | 1387.58
283.17 K, 1251 kPa | 1387.98
283.17 K, 1286 kPa | 1388.12
283.17 K, 1320.8 kPa | 1388.36
283.17 K, 1354.8 kPa | 1388.62
283.17 K, 1394.7 kPa | 1388.89
283.17 K, 1427.8 kPa | 1389.18
283.17 K, 1463.5 kPa | 1389.43
283.17 K, 1507.4 kPa | 1389.74
283.17 K, 1549.2 kPa | 1389.92
283.17 K, 1591 kPa | 1390.31
283.17 K, 1634.6 kPa | 1390.61
283.17 K, 1720.9 kPa | 1391.22
283.17 K, 1765.5 kPa | 1391.52
283.17 K, 1806 kPa | 1391.83
283.17 K, 1849 kPa | 1391.99
283.17 K, 1895 kPa | 1392.44
283.17 K, 1935.4 kPa | 1392.64
283.17 K, 1975.7 kPa | 1392.98
283.17 K, 2022.9 kPa | 1393.24
283.17 K, 2076.3 kPa | 1393.62
283.17 K, 2128.3 kPa | 1394
283.17 K, 2174.7 kPa | 1394.46
283.17 K, 2219 kPa | 1394.73
283.17 K, 2306.2 kPa | 1395.23
283.17 K, 2350.5 kPa | 1395.59
283.17 K, 2406.1 kPa | 1396.02
283.17 K, 2455.4 kPa | 1396.26
283.17 K, 2506.6 kPa | 1396.64
283.17 K, 2551.5 kPa | 1396.81
283.17 K, 2593.9 kPa | 1397.25
283.17 K, 2644 kPa | 1397.48
283.17 K, 2684 kPa | 1397.73
283.17 K, 2734.9 kPa | 1398.07
283.17 K, 2785.7 kPa | 1398.39
283.17 K, 2848.1 kPa | 1398.74
283.17 K, 2900.4 kPa | 1399.13
283.17 K, 2951 kPa | 1399.5
283.17 K, 3020.7 kPa | 1400.01
283.17 K, 3136.8 kPa | 1400.76
283.17 K, 3180.2 kPa | 1400.96
283.17 K, 3236.8 kPa | 1401.44
283.17 K, 3291.9 kPa | 1401.74
283.17 K, 3350 kPa | 1402.05
283.17 K, 3394.2 kPa | 1402.39
283.17 K, 3434.9 kPa | 1402.61
283.17 K, 3476.3 kPa | 1403.01
283.17 K, 3535.7 kPa | 1403.26
283.17 K, 3591.4 kPa | 1403.66
283.17 K, 3653.3 kPa | 1403.98
283.17 K, 3709.6 kPa | 1404.3
283.17 K, 3821.9 kPa | 1405.06
283.17 K, 3864.3 kPa | 1405.48
283.17 K, 3907.8 kPa | 1405.66
283.17 K, 3949 kPa | 1405.94
283.17 K, 4020.4 kPa | 1406.43
283.17 K, 4078.5 kPa | 1406.71
283.17 K, 4127.6 kPa | 1407.05
283.17 K, 4182.4 kPa | 1407.4
283.17 K, 4239.6 kPa | 1407.72
283.17 K, 4293.4 kPa | 1408.17
283.17 K, 4409.9 kPa | 1408.82
283.17 K, 4465.6 kPa | 1409.18
283.17 K, 4516.2 kPa | 1409.47
283.17 K, 4620.4 kPa | 1410.09
283.17 K, 4676.1 kPa | 1410.42
283.17 K, 4728.4 kPa | 1410.73
283.17 K, 4783.7 kPa | 1411.1
283.17 K, 4835.3 kPa | 1411.33
283.17 K, 4889.5 kPa | 1411.65
283.17 K, 4943.6 kPa | 1412.08
283.17 K, 4996 kPa | 1412.33
283.17 K, 5057.6 kPa | 1412.68
283.17 K, 5126.3 kPa | 1413.1
283.17 K, 5167.5 kPa | 1413.34
283.17 K, 5237.5 kPa | 1413.76
283.17 K, 5303.9 kPa | 1414.14
283.17 K, 5372.7 kPa | 1414.61
283.17 K, 5504.1 kPa | 1415.44
283.17 K, 5572.6 kPa | 1415.73
283.17 K, 5644.7 kPa | 1416.12
283.17 K, 5720.2 kPa | 1416.66
283.17 K, 5786.5 kPa | 1416.98
283.17 K, 5855.5 kPa | 1417.42
283.17 K, 5920.9 kPa | 1417.74
283.17 K, 5997.2 kPa | 1418.2
283.17 K, 6065.1 kPa | 1418.58
283.17 K, 6130.5 kPa | 1419
283.17 K, 6196 kPa | 1419.33
283.17 K, 6260.9 kPa | 1419.73
283.17 K, 6326.3 kPa | 1420.11
283.17 K, 6398.7 kPa | 1420.44

Settings | vapor or sublimation pressure [kPa]
268.24 K | 272
273.24 K | 326.8
278.21 K | 389
278.22 K | 388.6
